We go through one substance from patent publication US11617356B2, “Mouse lymphoma cell line and animal model of human high grade B-cell lymphoma” (PÉCSI TUDOMÁNYEGYETEM, priority 2015, dated 2023).

The subject of the test is Bc-DLFL.1 cells. Description: short-term in vitro survival of Bc-DLFL.1 cells on addition of recombinant BAFF. Particulars: addition of recombinant BAFF to culture; data not shown. Format: cell-based, mouse. From the text: The specific conditions needed to propagate Bc-DLFL.1 raised the dependence of this lymphoma for tissue-derived factors for survival. The most likely candidates are the different receptors for BAFF. […] In normal B-cell development, TACI and BCMA is expressed following activation during plasmacytic differentiation, while BAFF-R disappears. BAFF-R is more characteristic of mature resting B-cells.

With “recombinant BAFF: recombinant BAFF, ligand of BAFF-R, BCMA and TACI, added to Bc-DLFL.1 cells in vitro”, the “short-term in vitro survival of Bc-DLFL.1 cells” value is “moderately increased”.
